Data as given in the NIST ThermoML archive (doi:10.1021/je9006019).
“And” between values parts separate entries of the source, which are not always exact repeats. Equal values may be shown once.

Experiment: mn = molality of the nth substance listed, in mol/kg
Settings: 101 kPa, Liquid; for viscosity: Capillary tube (Ostwald / Ubbelohde) method; for electrical conductivity: DIgital conductivity meter (306) of Systronics; for speed of sound: Pulse-echo method

CCCCCCCCCCCCOS(=O)(=O)[O-].[Na+] [sodium dodecyl sulfate] + O
Settings	electrical conductivity [S/m]	mass density [kg/m3]	speed of sound	viscosity [mPa·s]
298.15 K, m1 = 0.001	–	–	1497.2 m/s	–
298.15 K, m1 = 0.003	–	–	1497.5 m/s	–
298.15 K, m1 = 0.005	–	–	1497.8 m/s	–
298.15 K, m1 = 0.007	–	–	1497.9 m/s	–
298.15 K, m1 = 0.008	–	–	1497.9 m/s	–
298.15 K, m1 = 0.01	–	–	1498.1 m/s	–
298.15 K, m1 = 0.02	–	–	1498.2 m/s	–
298.15 K, m1 = 0.03	–	–	1498.4 m/s	–
298.15 K, m1 = 0.05	1	999.078	1498.3 m/s and 1498.3 m/s	0.986
298.15 K, m1 = 0.07	–	–	1498.2 m/s	–
298.15 K, m1 = 0.1	2.6	1000.97	1498 m/s	1.133
298.15 K, m1 = 0.103	–	–	1498.2 m/s	–
303.15 K, m1 = 0.001	–	–	1509.5 m/s	–
303.15 K, m1 = 0.003	–	–	1509.8 m/s	–
303.15 K, m1 = 0.005	–	–	1510.1 m/s	–
303.15 K, m1 = 0.007	–	–	1510.1 m/s	–
303.15 K, m1 = 0.008	–	–	1510.2 m/s	–
303.15 K, m1 = 0.01	–	–	1510.3 m/s	–
303.15 K, m1 = 0.02	–	–	1510.3 m/s	–
303.15 K, m1 = 0.03	–	–	1510.4 m/s	–
303.15 K, m1 = 0.05	–	–	1510.2 m/s	–
303.15 K, m1 = 0.07	–	–	1509.9 m/s	–
303.15 K, m1 = 0.103	–	–	1509.7 m/s	–
308.15 K, m1 = 0.001	–	–	1520.1 m/s	–
308.15 K, m1 = 0.003	–	–	1520.4 m/s	–
308.15 K, m1 = 0.005	–	–	1520.6 m/s	–
308.15 K, m1 = 0.007	–	–	1520.7 m/s	–
308.15 K, m1 = 0.008	–	–	1520.7 m/s	–
308.15 K, m1 = 0.01	–	–	1520.8 m/s	–
308.15 K, m1 = 0.02	–	–	1520.8 m/s	–
308.15 K, m1 = 0.03	–	–	1520.7 m/s	–
308.15 K, m1 = 0.05	2.1	995.942	1520.3 m/s and 1520.2 m/s	0.79
308.15 K, m1 = 0.07	–	–	1519.9 m/s	–
308.15 K, m1 = 0.1	3.4	997.734	1519.1 m/s	0.87
308.15 K, m1 = 0.103	–	–	1519.3 m/s	–
313.15 K, m1 = 0.001	–	–	1529 m/s	–
313.15 K, m1 = 0.003	–	–	1529.3 m/s	–
313.15 K, m1 = 0.005	–	–	1529.5 m/s	–
313.15 K, m1 = 0.007	–	–	1529.5 m/s	–
313.15 K, m1 = 0.008	–	–	1529.6 m/s	–
313.15 K, m1 = 0.01	–	–	1529.7 m/s	–
313.15 K, m1 = 0.02	–	–	1529.5 m/s	–
313.15 K, m1 = 0.03	–	–	1529.4 m/s	–
313.15 K, m1 = 0.05	–	–	1528.8 m/s	–
313.15 K, m1 = 0.07	–	–	1528.2 m/s	–
313.15 K, m1 = 0.103	–	–	1527.3 m/s	–
